# According to patent publication US9187458B2, “Cyanoquinoline derivatives” (Tianjin Hemay Bio-Tech Co., LTD., priority 2010, dated 2015):
# What was measured:
# BT-474 cells = assay: BT-474 Cell Growth Inhibition Test (SRB Assay); assay type: cell-based, human; details: 70 h incubation; for IC50 / inhibition at 1 µM: Homo sapiens; for inhibition at 1 µM: BT-474, 70 h, read-out: Growth Inhibition Ratio (%)
# In short: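 Human breast tumour BT-474 cells (1×10^5/ml seeding, overnight) exposed to compound 70 h at 37 °C, 5% CO2; TCA-fixed, SRB-stained, dye dissolved in 10 mM Tris and OD read at 570 nm. Inhibition ratio = (PC−n)/(PC−NC)×100%; IC50 is the concentration giving 50% inhibition, from fitted curves.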
# NCI-N87 cells = assay: NCI-N87 Cell Growth Inhibition Test (MTT Assay); assay type: cell-based; details: Homo sapiens, 72 h incubation
# Method: NCI-N87 Cell Growth Inhibition Test (MTT Assay)
# 1. Cell strains: NCI-N87 (human gastric carcinoma cell strains);
# (§1) 1. A plate (10 cm) of cells in logarithmic growth phase normally cultured was collected;
# 2. The culture solution was sucked out. The plate was washed wtih 5 ml of PBS 1-2 times;
# (§2) 3. PBS was sucked out. 1.5 ml of 0.25% pancreatin was added to infiltrate the cells for 1 min;
# 4. The pancreatin was sucked out. The culture plate was placed in an incubator. Digestion was carried out for about 12 min at 37° C.;
# 5. 4.5 ml of complete culture solution was added to the culture plate to stop the digestion. The cells were carefully scoured with micropipette (1 ml) to give a uniform cell suspension. The suspension was implanted into a 96-well cell culture disc by 17000 cells/100 μl per well. The culture plate was incubated overnight under 5% CO2 at 37° C. In day 2, 100 μl of culture solution comprising a compound was added in each well, and further incubated for 72 h under 5% CO2 at 37° C.
# (§3) 6. The culture solution was sucked out;
# (§4) 7. 100 μl of serum-free culture solution containing 0.5 mg/ml MTT was added in each well, and incubated for 3 h;
# (§5) 8. The culture solution was carefully sucked out;
# (§6) 9. 100 μl of DMSO was added in each welland vibrated to dissolve;
# (§7) 10. OD values were determined at 490 nM.
# 1. Calculation of Rrelative Inhibition Ratio The inhibition ratio of a compound on cell growth=(PC−n)/(PC−NC)×100%
# (§8) IC50: Concentration of a compound where inhibition ratio was 50%. IC50 values were fitted with Origin7.5.
# NCI-H460 cells = assay: NCI-H460 Cell Growth Inhibition Test (MTT Assay); assay type: cell-based; details: Homo sapiens, 72 h incubation
# In short: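 Cells seeded at 2500 per well, left overnight, then exposed to compound for 72 h at 37 °C, 5% CO2. Viability by MTT (0.5 mg/ml, 3 h), DMSO-dissolved, OD 490 nm; inhibition ratio = (PC−n)/(PC−NC)×100%, IC50 from curve fit.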
# A549 cells = assay: A549 Cell Growth Inhibition Test (MTT Assay); assay type: cell-based; details: Homo sapiens, 72 h incubation
# Method: A549 Cell Growth Inhibition Test (MTT Assay)
# 1. Cell strains: […] (human lung caner cell strains);
# Culture medium: 90% F12K+10% FBS;
# as §1
# 2. The culture solution was sucked out. Tthe plate was washed with 5 ml of PBS 1-2 times;
# 3. PBS was sucked out. 2 ml of 0.25% pancreatin was added to infiltrate the cells for 1 min;
# 4. The pancreatin was sucked out. The culture plate was placed in an incubator. Digestion was carried out for about 2 min at 37° C.;
# 5. 4 ml of complete culture solution was added to the culture plate to stop the digestion. The cells were carefully scoured with micropipette (1 ml) to give a uniform cell suspension. The suspension was implanted into a 96-well cell culture plate by 2500 cells/100 μl per well. The culture plate was incubated overnight under 5% CO2 at 37° C. In day 2, 100 μl of culture solution comprising a compound was added in each well, and further incubated for 72 h under 5% CO2 at 37° C.
# as §3, §4, §5
# 9. 100 μl of DMSO was added in each well and vibrated to dissolve;
# as §7
# (§9) 1. Calculation of Relative Inhibition Ratio The inhibition ratio of a compound on cell growth=(PC−n)/(PC−NC)×100%
# as §8
# AsPC-1 cells = assay: AsPC-1 Cell Growth Inhibition Test (MTT Assay); assay type: cell-based; details: Homo sapiens, ASPC1, 72 h incubation
# Method: AsPC-1 Cell Growth Inhibition Test (MTT Assay)
# Cell strains: AsPC-1 (human pancreatic cancer cell strains);
# as §1
# 2. The culture solution was sucked out. The plate was washed with 5 ml of PBS 1-2 times;
# as §2
# 4. The pancreatin was sucked out. The culture plate was placed in an incubator. Digestion was carried out for about 7.5 min at 37° C.;
# 5. 4.5 ml of complete culture solution was added to the culture plate to stop the digestion. The cells were carefully scoured with micropipette (1 ml) to give a uniform cell suspension. The suspension was implanted into a 96-well cell culture plate by 8000 cells/100 μl per well. The culture plate was incubated overnight under 5% CO2 at 37° C. In day 2, 100 μl of culture solution comprising a compound was added in each well, and further incubated for 72 h under 5% CO2 at 37° C.
# as §3, §4, §5, §6, §7, §9, §8
SMILES,IC50 (BT-474 cells) [nM],inhibition at 1 µM (BT-474 cells; compound 1 μM) [%],IC50 (NCI-N87 cells) [nM],IC50 (NCI-H460 cells) [nM],IC50 (A549 cells) [nM],Growth Inhibition Ratio (%) (BT-474 cells; compound 1 μM),IC50 (AsPC-1 cells) [nM]
"C#Cc1cccc(Nc2c(C#N)cnc3cc(O[C@H]4CCOC4)c(NC(=O)/C=C/CN(C)C)cc23)c1 [Example 140, (S,E)-N-(3-CYANO-4-(3-ETHYNYLPHENYLAMINO)-7-(TETRAHYDROFURAN-3-YL-OXY)QUINOLIN-6-YL)-4-(DIMETHYLAMINO)-BUT-2-ENAMIDE]",33,85,15,1100,1600,,
"C#Cc1cccc(Nc2c(C#N)cnc3cc(OC4CCOC4)c(NC(=O)/C=C/CN(C)C)cc23)c1 (centres unmarked) [Example 5, (E)-N-(3-CYANO-4-(3-ETHYNYLPHENYLAMINO)-7-(TETRAHYDROFURAN-3-YL-OXY)QUINOLIN-6-YL)-4-(DIMETHYLAMINO)-BUT-2-ENAMIDE]",41,,22,1200,1300,85,
"C#Cc1cccc(Nc2c(C#N)cnc3cc(O[C@H]4CCOC4)c(NC(=O)/C=C/CN4CCOCC4)cc23)c1 [Example 145, (S,E)-N-(3-CYANO-4-(3-ETHYNYLPHENYLAMINO)-7-(TETRAHYDROFURAN-3-YL-OXY)QUINOLIN-6-YL)-4-(MORPHOLIN-4-YL)-BUT-2-ENAMIDE]",654,75,346,,6700,,
"CC(C)(C)NC/C=C/C(=O)Nc1cc2c(Nc3ccc(OCc4ccccn4)c(Cl)c3)c(C#N)cnc2cc1O[C@H]1CCOC1 [Example 153, (S,E)-N-(4-(3-CHLORO-4-(PYRIDIN-2-YL-METHOXY)PHENYLAMINO)-3-CYANO-7-(TETRAHYDROFURAN-3-YL-OXY)QUINOLIN-6-YL)-4-(TERT-BUTYLAMINO)-BUT-2-ENAMIDE]",7.2,,15,,6400,,
"CCN(CC)C/C=C/C(=O)Nc1cc2c(Nc3ccc(OCc4ccccn4)c(Cl)c3)c(C#N)cnc2cc1O[C@H]1CCOC1 [Example 150, (S,E)-N-(4-(3-CHLORO-4-(PYRIDIN-2-YL-METHOXY)PHENYLAMINO)-3-CYANO-7-(TETRAHYDROFURAN-3-YL-OXY)QUINOLIN-6-YL)-4-(DIETHYLAMINO)-BUT-2-ENAMIDE]",4.9,82,6.6,,3800,,895
"CN(C)C/C=C/C(=O)Nc1cc2c(Nc3cccc(Br)c3)c(C#N)cnc2cc1OC1CCOC1 (centres unmarked) [Example 7, (E)-N-(4-(3-BROMOPHENYLAMINO)-3-CYANO-7-(TETRAHYDROFURAN-3-YL-OXY)QUINOLIN-6-YL)-4-(DIMETHYLAMINO)-BUT-2-ENAMIDE]",309,,113,940,3000,,
"C#Cc1cccc(Nc2c(C#N)cnc3cc(O[C@@H]4CCOC4)c(NC(=O)/C=C/CN(C)C)cc23)c1 [Example 141, (R,E)-N-(3-CYANO-4-(3-ETHYNYLPHENYLAMINO)-7-(TETRAHYDROFURAN-3-YL-OXY)QUINOLIN-6-YL)-4-(DIMETHYLAMINO)-BUT-2-ENAMIDE]",96,89,32,2900,800,,
"C#Cc1cccc(Nc2c(C#N)cnc3cc(O[C@H]4CCOC4)c(NC(=O)/C=C/CN4CCCCC4)cc23)c1 [Example 144, (S,E)-N-(3-CYANO-4-(3-ETHYNYLPHENYLAMINO)-7-(TETRAHYDROFURAN-3-YL-OXY)QUINOLIN-6-YL)-4-(PIPERIDIN-1-YL)-BUT-2-ENAMIDE]",129,,98,,1000,,
"N#Cc1cnc2cc(O[C@H]3CCOC3)c(NC(=O)/C=C/CN3CCOCC3)cc2c1Nc1ccc(OCc2ccccn2)c(Cl)c1 [Example 152, (S,E)-N-(4-(3-CHLORO-4-(PYRIDIN-2-YL-METHOXY)PHENYLAMINO)-3-CYANO-7-(TETRAHYDROFURAN-3-YL-OXY)QUINOLIN-6-YL)-4-(MORPHOLIN-4-YL)-BUT-2-ENAMIDE]",10.4,78,20,,,,
"C#Cc1cccc(Nc2c(C#N)cnc3cc(O[C@H]4CCOC4)c(NC(=O)/C=C/CN(C)Cc4ccccc4)cc23)c1 [Example 149, (S,E)-N-(3-CYANO-4-(3-ETHYNYLPHENYLAMINO)-7-(TETRAHYDROFURAN-3-YL-OXY)QUINOLIN-6-YL)-4-(N-METHYLBENZYLAMINO)-BUT-2-ENAMIDE]",212,79,111,,,,
"CN(C)C/C=C/C(=O)Nc1cc2c(Nc3ccc(OCc4ccccn4)c(Cl)c3)c(C#N)cnc2cc1O[C@@H]1CCOC1 [Example 139, (R,E)-N-(4-(3-CHLORO-4-(PYRIDIN-2-YL-METHOXY)PHENYLAMINO)-3-CYANO-7-(TETRAHYDROFURAN-3-YL-OXY)QUINOLIN-6-YL)-4-(DIMETHYLAMINO)-BUT-2-ENAMIDE]",3.9,81,7.2,,600,,422
"C#Cc1cccc(Nc2c(C#N)cnc3cc(O[C@H]4CCOC4)c(NC(=O)/C=C/CN(CC)CC)cc23)c1 [Example 143, (S,E)-N-(3-CYANO-4-(3-ETHYNYLPHENYLAMINO)-7-(TETRAHYDROFURAN-3-YL-OXY)QUINOLIN-6-YL)-4-(DIETHYLAMINO)-BUT-2-ENAMIDE]",149,87,89,,1500,,
"C#Cc1cccc(Nc2c(C#N)cnc3cc(O[C@H]4CCOC4)c(NC(=O)/C=C/CNC(C)(C)C)cc23)c1 [Example 146, (S,E)-N-(3-CYANO-4-(3-ETHYNYLPHENYLAMINO)-7-(TETRAHYDROFURAN-3-YL-OXY)QUINOLIN-6-YL)-4-(TERT-BUTYLAIMINO)-BUT-2-ENAMIDE]",236,,189,,7000,,
"CN(C)C/C=C/C(=O)Nc1cc2c(Nc3ccc(OCc4ccccn4)c(Cl)c3)c(C#N)cnc2cc1OC1CCOC1 (centres unmarked) [Example 21, (E)-N-(4-(3-CHLORO-4-(PYRIDIN-2-YL-METHOXY)PHENYLAMINO)-3-CYANO-7-(TETRAHYDROFURAN-3-YL-OXY)QUINOLIN-6-YL)-4-(DIMETHYLAMINO)-BUT-2-ENAMIDE]",3.6,,6.8,2700,900,,
